Laboratory results from PMC10454728, “A Comparative Study on the Lysosomal Cation Channel TMEM175 Using Automated Whole-Cell Patch-Clamp, Lysosomal Patch-Clamp, and Solid Supported Membrane-Based Electrophysiology: Functional Characterization and High-Throughput Screening Assay Development” (International Journal of Molecular Sciences, 2023).

What was measured:
control HEK293 UT cells = assay: Whole-cell APC off-target effects on control cells; type: cell-based, human; settings: 50 µM
Procedure: Figure 7 Whole-cell APC recordings on TMEM175: (A) Schematic representation of assay conditions in the Cs^+ flux assay. The ions known to permeate through TMEM175 in the external and internal solutions are indicated; (B) Voltage protocol and time points for the read-out of inward and outward currents; (C) The compound application protocol consists of the recording of the TMEM175 baseline current. […] Success rates were determined based on the QC criteria provided in the Methods section. […] We determined average values, AVGpos and AVGneg, and standard deviations, SDpos and SDneg, of the recorded currents. […] Datapoints were normalized to the TMEM175 baseline current before compound addition and then averaged across at least N = 5 cells. Error bars represent the SEM obtained from automated data analysis using DataControl384. […] The compound effects on control cells were between +10% and -40% compared to the control baseline current. […]. […] Therefore, off-target compound effects seem to be negligible in the APC assay.

TMEM175 [1] = target: T1, TMEM175 (Homo sapiens, UniProt Q9BSA9); assay: Manual lysosomal patch-clamp (LPC) on vacuolin-1 enlarged lysosomes; type: biochemical
T1 sequence (Q9BSA9 1-504): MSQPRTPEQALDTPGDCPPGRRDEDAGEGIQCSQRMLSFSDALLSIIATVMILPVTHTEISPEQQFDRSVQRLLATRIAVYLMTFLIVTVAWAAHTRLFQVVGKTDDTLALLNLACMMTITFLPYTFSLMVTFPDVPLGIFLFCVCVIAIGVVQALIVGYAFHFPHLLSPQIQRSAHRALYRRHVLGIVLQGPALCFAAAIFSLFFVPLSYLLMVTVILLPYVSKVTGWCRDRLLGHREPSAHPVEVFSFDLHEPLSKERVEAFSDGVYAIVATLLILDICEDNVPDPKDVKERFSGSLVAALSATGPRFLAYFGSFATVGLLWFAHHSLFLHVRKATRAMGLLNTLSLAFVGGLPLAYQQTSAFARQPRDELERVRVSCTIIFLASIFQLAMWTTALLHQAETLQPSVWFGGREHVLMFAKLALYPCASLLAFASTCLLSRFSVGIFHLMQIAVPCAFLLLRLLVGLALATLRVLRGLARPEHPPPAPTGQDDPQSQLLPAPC
Procedure: Since both technologies apply different assay conditions and samples, the origin of the discrepancies may not be concluded. To investigate potential systematic variations among different assay technologies, namely, whole-cell APC, SSME on purified lysosomes, and manual LPC, we conducted a comparative analysis of the potency and maximum potentiation of a set of eight blinded compounds and SC-79 (Figure 8, Table 4). SSME recordings were performed using the same procedures as described for the tool compounds above. However, adjustments were made to the voltage application protocol in APC, as outlined in the Methods section. Lysosomal patch-clamp was performed using a manual setup. In contrast to APC and SSME recordings, the recorded current in LPC represents H^+ efflux from lysosomes in the presence of a physiological pH gradient (details are provided in the Methods section).
Experiments were carried out in whole-lysosome configuration in voltage-clamp mode, using a modified patch-clamp method, as described by Chen et al..
Briefly, cells were treated overnight with 5 µM vacuolin-1 to increase the size of the lysosomes. Mechanical isolation was performed using a patch pipette pressed against a selected cell, and quickly pulled away to slice the cell membrane to release the enlarged lysosomes into the dish. After the dissection of the lysosomes, the glass electrode was exchanged for a recording electrode. After the formation of a giga-seal and compensation of capacitance transients, voltage steps of several hundred millivolts with millisecond duration were applied to break into the vacuolar membrane.
The bath solution representing the cytosol contained 10 mM HEPES (pH 7.2), 145 mM K-methanesulfonate and 5 mM KCl. The pipette solution representing the lysosomal lumen contained 10 mM MES (pH 5.5), 145 mM Cs-methanesulfonate, 5 mM KCl, and 10 mM EGTA.
After the reappearance of capacitance transients to verify the whole-lysosome configuration, the TMEM175 currents were recorded using a ramp protocol from −100 to +100 mV with 1 s of duration, digitized at 20 kHz. The ramp protocol was repeated in 4 s intervals, keeping the lysosomes at 0 mV in between. We used the outward current at +100 mV as a read-out, essentially observing the flux of H^+ and Cs^+ from the lysosome into the cytosol. […]
Before averaging across datasets obtained from N = 3 lysosomes, we normalized the currents to the control current. Datasets containing 6 or 9 compound concentrations were recorded in two or three sets of experiments with 3 compound concentrations per lysosome. All experiments were conducted at room temperature, and recordings were analyzed with pClamp 10.7 and GraphPad Prism 8.

TMEM175 [2] = target: T1, TMEM175; assay: Whole-cell automated patch-clamp (APC) Cs+ flux assay, SyncroPatch 384i, HEK293 overexpressing TMEM175; type: cell-based; settings: 50 µM, at +100 mV, Figure 7F

[Cl-].[Cl-].[Zn+2] [Zn, ZnCl2]
Decrease of baseline current of control cells (control HEK293 UT cells): 30–40%

CCOC(=O)C1=C(N)Oc2ccc(Cl)cc2C1C(C#N)C(=O)OCC (stereo not drawn) [SC-79]
Imax − Imin (nA), LPC (TMEM175 [1]; Table 4 fit, currents normalized to current before compound): 0.91 ± 0.52 nA | n (Hill coefficient), LPC (TMEM175 [1]; fixed to 1 in the fit): 1 | Potentiation, LPC (TMEM175 [1]; from dose-response fit, Figure 8): 91 ± 52% | EC50 (TMEM175 [1]; outward current at +100 mV, pipette pH 5.5 / bath pH 7.2): 21 ± 32 µM | Current of TMEM175 cells after enhancer, APC (TMEM175 [2]): 305 ± 39%
